# According to the RepoRT retention time repository:
# Structures can show the parent of a compound that is named as a salt.
# Test: RP, Restek Raptor Biphenyl, 100 × 2.1 mm, 2.7 µm, 50 °C, 0.4 mL/min, estimated dead time 0.55 min; A: water + 0.1% formic acid, pH 3; B: methanol + 0.1% formic acid, pH 3; gradient (min/%B) 0/5 1.12/5 6.41/99.5 10.01/99.5
# Details: stereoisomer not certain
row,SMILES,LC retention time [min]
1,CCCCCCCCCCCCCC(=O)OC(CC(=O)[O-])C[N+](C)(C)C [Myristoyl-L-carnitine],5.74
2,CCC(C)C(=O)NCC(=O)O (centres undefined) [N-(2-Methylbutyryl)glycine],2.83
3,O=C(O)CNC(=O)C=Cc1ccccc1 [N-(CINNAMOYL)GLYCINE],4.42
4,CC(=O)NC(CC(C)C)C(=O)O (centres undefined) [N-ACETYLLEUCINE],3.63
5,CSCCC(NC(C)=O)C(=O)O (centres undefined) [N-ACETYLMETHIONINE],3.04
6,CC(=O)NC(Cc1ccccc1)C(=O)O (centres undefined) [N-ACETYLPHENYLALANINE],4.06
7,CC(=O)N[C@@H](CC(=O)O)C(=O)O [N-Acetyl-L-aspartic acid],0.77
8,CC(=O)N[C@@H](Cc1ccc(O)cc1)C(=O)O [N-Acetyl-L-tyrosine],2.88
9,NC(=O)c1ccc[n+](C2OC(COP(=O)([O-])OP(=O)(O)OCC3OC(n4cnc5c(N)ncnc54)C(OP(=O)(O)O)C3O)C(O)C2O)c1 (centres undefined) [NADP],0.746
10,CCN(Cc1ccc(Cl)nc1)C(=C[N+](=O)[O-])NC [Nitenpyram],3.63
11,CC(CC(=O)O)C1CCC2C3CCC4CC(O)CCC4(C)C3CC(O)C12C (centres undefined) [Nor-Desoxycholic Acid],6.24
12,CC(CCC(=O)O)C1CCC2C3C(=O)CC4CC(O)CCC4(C)C3CCC12C (centres undefined) [Nutriacholic Acid],6.42
13,CCCCCCCCCCCCCCCCCCCCCCCCCCCC(=O)O [Octacosanoic acid],7.08
14,CCCCCCCCCCCC=CCCCCC(=O)O [PETROSELINATE],6.63
15,CC(=O)Oc1ccccc1 [PHENYL ACETATE],2.46
16,O=C(O)Cc1ccccc1 [PHENYLACETATE],2.46
17,c1ncc2[nH]cnc2n1 [PURINE],1.29
18,O=C(O)c1ccc[nH]1 [PYRROLE-2-CARBOXYLATE],3.3
19,CCCCCCCCCCCCCCCCCCCCCCCCC(=O)O [Pentacosanoic Acid],6.98
20,CCCCCCCCCCCCCCC(=O)O [Pentadecanoic acid],6.44
21,O=C(O)C(=O)Cc1ccccc1 [Phenylpyruvic acid],2.88
22,CC(C)CCCC(C)CCCC(C)CCCC(C)CC(=O)O (centres undefined) [Phytanic acid],6.68
23,C#CC(C)(C)NC(=O)c1cc(Cl)cc(Cl)c1 [Propyzamide],5.6
24,O=C(O)c1cccnc1C(=O)O [QUINOLINATE],1
25,O=C(O)CCCCCCCCC(=O)O [SEBACATE],4.87
26,C=CCNC(=O)c1c([Si](C)(C)C)sc(C)c1C [Silthiofam],6

row,SMILES,LC retention time [min]
1,CCCCCCCCCCCCCCCCCC(=O)OC(CC(=O)[O-])C[N+](C)(C)C [Stearoyl-L-carnitine],6.13
2,Cc1nn(-c2cc(NS(C)(=O)=O)c(Cl)cc2Cl)c(=O)n1C(F)F [Sulfentrazone],5.29
3,Cn1c(=O)c2[nH]cnc2n(C)c1=O [THEOPHYLLINE],3.54
4,Cc1cn(C2CC(O)C(COP(=O)(O)O)O2)c(=O)[nH]c1=O (centres undefined) [THYMIDINE-MONOPHOSPHATE],0.837
5,NC(=O)C1CCCN1C(=O)C(Cc1cnc[nH]1)NC(=O)C1CCC(=O)N1 (centres undefined) [THYROTROPIN RELEASING HORMONE],1.99
6,NC(Cc1c[nH]c2ccccc12)C(=O)O (centres undefined) [TRYPTOPHAN],2.53
7,CC(CCC(=O)NCCS(=O)(=O)O)C1CCC2C3C(O)CC4CC(O)CCC4(C)C3CC(O)C12C (centres undefined) [Taurocholic acid sodium salt hydrate],5.83
8,CC(CCC(=O)NCCS(=O)(=O)O)C1CCC2C3CCC4CC(O)CCC4(C)C3CCC12C (centres undefined) [Taurolithocholic acid],6.47
9,CCc1ccc(C(=O)NN(C(=O)c2cc(C)cc(C)c2)C(C)(C)C)cc1 [Tebufenozide],6.04
10,O=C(Nc1ccccc1)Nc1cnns1 [Thidiazuron],4.75
11,CC=C(C)C(=O)NCC(=O)O [Tiglyl Glycine],2.95
12,O=C(O)CC(CC(=O)O)C(=O)O [Tricarballylic acid],0.842
13,CCCCCCCCCCCCCCCCCCCCCCC(=O)O [Tricosanoic acid],6.91
14,CC1(C)CCC(=Cc2ccc(Cl)cc2)C1(O)Cn1cncn1 (centres undefined) [Triticonazole],5.93
15,O=c1[nH]c(=O)c2[nH]c(=O)[nH]c2[nH]1 [URATE],0.774
16,O=c1[nH]c(=O)c2ncn(C3OC(COP(=O)(O)O)C(O)C3O)c2[nH]1 (centres undefined) [XANTHOSINE-MONOPHOSPHATE],0.695
17,O=c1[nH]c(=O)c2ncn(C3OC(CO)C(O)C3O)c2[nH]1 (centres undefined) [XANTHOSINE],1.47
18,O=C(O)c1cc(=O)c2cccc(O)c2[nH]1 [Xanthurenic acid],3.14
19,CCCCCCCCCC(O)CC(=O)OC(CC(=O)[O-])C[N+](C)(C)C [[(3R)-3-Hydroxydodecanoyl]-L-carnitine],5.15
20,"CCCCCC=CCC=CCC=CCC=CCC=CCCC(=O)O [all-cis-4,7,10,13,16-Docosapentaenoic acid]",6.7
21,"CCC=CCC=CCC=CCC=CC/C=C\CCCC(=O)O [cis-5,8,11,14,17-Eicosapentaenoic acid]",6.56
22,O=C(O)C=C(CC(=O)O)C(=O)O [cis-Aconitic acid],0.818
23,CCCCCC/C=C/CCCCCCCCCC(=O)O [trans-Vaccenic Acid],6.61
24,O=C(O)CCC(=O)C(=O)O [α-Ketoglutaric acid],0.722
25,CCCCCC=CCC=CCC=CCCCCC(=O)O [γ-Linolenic acid],6.54

# Next, values leading:
row,LC retention time [min],SMILES
1,1.05,CC(=O)NC(C)C(=O)O (centres undefined) [N-ACETYLALANINE]
2,0.702,CC(=O)NC(CC(N)=O)C(=O)O (centres undefined) [N-ACETYLASPARAGINE]
3,3.58,CC(=O)NCCc1c[nH]c2ccc(O)cc12 [N-ACETYLSEROTONIN]
4,4.12,CC(=O)NC(Cc1c[nH]c2ccccc12)C(=O)O (centres undefined) [N-ACETYLTRYPTOPHAN]
5,6.93,CCCCCCCCC=CCCCCCCCCCCCCCC(=O)O [Nervonic acid]
6,6.72,CCCCCCCCCCCCCCCCCCC(=O)O [Nonadecanoic acid]
7,3.54,Cn1c(=O)[nH]c2ncn(C)c2c1=O [PARAXANTHINE]
8,6.51,CC(=O)C1CCC2C3CC=C4CC(OS(=O)(=O)O)CCC4(C)C3CCC12C (centres undefined) [PREGNENOLONE SULFATE]
9,6.54,CCCCCCCCCCCCCCCC(=O)O [Palmitic acid]
10,4.45,Cc1cc2nc3c(=O)[nH]c(=O)nc-3n(CC(O)C(O)C(O)CO)c2cc1C (centres undefined) [RIBOFLAVIN]
11,6.18,CCCCCCC(O)CC=CCCCCCCCC(=O)O (centres undefined) [Ricinoleic acid]
12,4.59,CCCCCCSCC(NC(=O)CCC(N)C(=O)O)C(=O)NCC(=O)O (centres undefined) [S-HEXYL-GLUTATHIONE]
13,6.67,CCCCCCCCCCCCCCCCCC(=O)O [Stearic acid]
14,0.909,O=C(O)CCC(=O)O [Succinic acid]
15,3.77,CSc1ncnc2nc[nH]c12 [THIOPURINE S-METHYLETHER]
16,2.18,Cc1cn(C2CC(O)C(CO)O2)c(=O)[nH]c1=O (centres undefined) [THYMIDINE]
17,0.796,NC(Cc1ccc(O)cc1)C(=O)O (centres undefined) [TYROSINE]
18,6.16,CC(CCC(=O)NCCS(=O)(=O)O)C1CCC2C3CCC4CC(O)CCC4(C)C3CC(O)C12C (centres undefined) [Taurodeoxycholic acid]
19,0.702,O=c1cc[nH]c(=O)[nH]1 [URACIL]
20,0.933,O=c1[nH]c(=O)c2[nH]cnc2[nH]1 [XANTHINE]
21,5.77,CCCCCCCCCCCCCC(O)CC(=O)OC(CC(=O)[O-])C[N+](C)(C)C [[(3R)-3-Hydroxyhexadecanoyl]-L-carnitine]
22,5.46,CCCCCCCCCC=CC(=O)OC(CC(=O)[O-])C[N+](C)(C)C [trans-2-Dodecenoyl-L-carnitine]
23,1.26,CC(C)C(=O)C(=O)O [α-Keto Isovaleric Acid Sodium Salt]
